Assay results as given in patent US5272054A, “Assay by enzyme-catalyzed isotopic exchange” (Syntex (U.S.A.) Inc., priority 1992, dated 1993).

These compounds were tested on homoserine dehydrogenase (assay: Isotopic exchange assay using homoserine dehydrogenase: specificity). Conditions: not given.
Format: biochemical, Baker's Yeast
Protocol: Homoserine and aspartic-β-semialdehyde are determined using homoserine dehydrogenase from Baker's Yeast (Anheuser-Busch) obtained by the procedure of Black, S. "Methods in Enzymology", vol. V, page 820 (Academic Press, New York, 1962), pages 824-827 of which are incorporated herein by reference. […] Other non-interfering substances will include 3-aminopropanol, γ-hydroxybutyrate, acetaldehyde, DL-threonine, DL-serine, and DL-homocysteine. DL-glutamic γ-semialdehyde will react at 1% of the rate of aspartic-β-semialdehyde.

| Compound | rate of reaction relative to aspartic-β-semialdehyde [%] |
| --- | --- |
| NC(CCC=O)C(=O)O (racemic) [DL-glutamic γ-semialdehyde] | 1 |

Same assay, conditions: homoserine / aspartic-β-semialdehyde assay

| Compound | interference with assay results |
| --- | --- |
| NC(CCS)C(=O)O (racemic) [DL-homocysteine] | non-interfering |
| NC(CO)C(=O)O (racemic) [DL-serine] | non-interfering |
| C[C@@H](O)[C@H](N)C(=O)O (racemic) [DL-threonine] | non-interfering |
| NCCCO [3-aminopropanol] | non-interfering |
| CC=O [acetaldehyde] | non-interfering |

Each compound was assayed on D-lactate dehydrogenase (assay: Isotopic exchange assay using D-lactate dehydrogenase: specificity). Conditions: D-lactate / pyruvate assay, enzyme from Lactobacillus plantarum.
Format: biochemical
Protocol: D-lactate and pyruvate in plasma are determined using D-lactate dehydrogenase from Lactobacillus leichmannii (Sigma or Boehringer-Mannheimbiochemicals) obtained by the procedure of Brandt, R. B. "Methods in Enzymology", vol. 89, page 35 (Academic Press, New York, 1982), pages 35-40 of which are incorporated herein by reference. The assay will detect D-lactate concentrations in plasma from 0.006 to 1.2 mM and at higher concentrations in food or microbiological samples. If the enzyme is from Lactobacillus plantarum obtained according to Dennis, D.; Kaplan, N. O. J. Bio.

| Compound | interference with assay results |
| --- | --- |
| CCCC[C@@H](O)C(=O)O | will not interfere with the assay results |
| CC(C)C[C@@H](O)C(=O)O | will not interfere with the assay results |
| CC[C@@H](O)C(=O)O [2-hydroxy-D-butyrate] | will not interfere with the assay results |
| CC(C)[C@@H](O)C(=O)O [Disovalerate] | will not interfere with the assay results |
| C[C@H](O)C(=O)O [L-lactate] | will not interfere with the assay results |

Same assay, conditions: enzyme from Lactobacillus plantarum

| Compound | replacement of NAD as cofactor |
| --- | --- |
| nicotinamide adenine dinucleotide phosphate [NAD(P)] | will not replace NAD |

These compounds were tested on fructuronate reductase (assay: Isotopic exchange assay using fructuronate reductase: specificity). Conditions: not given.
Format: biochemical, Escheria coli K-12 strain S 3000 (Hfr H)
Protocol: D-mannonate and D-fructuronate are determined using fructuronate reductase from Escheria coli K-12 strain S 3000 (Hfr H) obtained by the procedure of Portalier, R.; Stoeber, F. "Methods in Enzymology", vol. 89, page 210 (Academic Press, New York, 1982), pages 210-218 of which are incorporated herein by reference. […] D-tagaturonate and D-altronate are 20% as active as D-fructuronate and D-mannonate, respectively.

| Compound | substitution for NAD as cofactor |
| --- | --- |
| nicotinamide adenine dinucleotide phosphate [NAD(P)] | will not substitute for AND |

Same assay, conditions: D-mannonate / D-fructuronate assay

| Compound | interference with assay results |
| --- | --- |
| O=C(CO)[C@@H](O)[C@H](O)[C@H](O)[C@H](O)CO [D-altro-heptulose] | will not interfere with assay results |
| O=C[C@@H](O)[C@H](O)[C@H](O)CO [D-arabinose] | will not interfere with assay results |
| O=C(CO)[C@@H](O)[C@H](O)[C@H](O)CO [D-fructose] | will not interfere with assay results |
| O=C[C@H](O)[C@@H](O)[C@@H](O)[C@H](O)CO [D-galactose] | will not interfere with assay results |
| O=C[C@H](O)[C@@H](O)[C@H](O)[C@H](O)CO [D-glucose] | will not interfere with assay results |
| O=C[C@@H](O)[C@@H](O)[C@H](O)[C@H](O)C(O)CO (stereo partly drawn) [D-manno-heptose] | will not interfere with assay results |
| O=C[C@@H](O)[C@@H](O)[C@H](O)[C@H](O)CO [D-mannose] | will not interfere with assay results |
| O=C[C@H](O)[C@H](O)[C@H](O)CO [D-ribose] | will not interfere with assay results |
| O=C(CO)[C@H](O)[C@H](O)CO [D-ribulose] | will not interfere with assay results |
| O=C(CO)[C@H](O)[C@@H](O)[C@H](O)CO [D-sorbose] | will not interfere with assay results |
| O=C(CO)[C@@H](O)[C@@H](O)[C@H](O)CO [D-tagatose] | will not interfere with assay results |
| O=C[C@H](O)[C@@H](O)[C@H](O)CO [D-xylose] | will not interfere with assay results |
| O=C[C@H](O)[C@@H](O)[C@@H](O)CO [L-arabinose] | will not interfere with assay results |
| O=C[C@H](O)[C@H](O)[C@@H](O)CO [L-lyxose] | will not interfere with assay results |
| O=C[C@@H](O)[C@H](O)[C@@H](O)CO [L-xylose] | will not interfere with assay results |

These compounds were tested on soluble 17β-hydroxysteroid dehydrogenase (assay: Isotopic exchange assay using 17β-hydroxysteroid dehydrogenase: specificity). Conditions: not given.
Format: biochemical, human
Protocol: Estradiol-17β and estrone are determined using soluble 17β-hydroxysteroid dehydrogenase from human term placenta obtained by the procedure of Jarabak, J. "Methods in Enzymology", vol.

| Compound | rate of reaction relative to estrone |
| --- | --- |
| C[C@H](O)[C@H]1CC[C@H]2[C@@H]3CCC4=CC(=O)CC[C@]4(C)[C@H]3CC[C@]12C [20α-hydroxy derivative] | one-fiftieth |
| CC(=O)[C@H]1CC[C@H]2[C@@H]3CCC4=CC(=O)CC[C@]4(C)[C@H]3CC[C@]12C [Progesterone] | one-fiftieth |

Same assay, conditions: estradiol-17β / estrone assay

| Compound | interference with assay results |
| --- | --- |
| C[C@]12CC[C@@H]3c4ccc(O)cc4CC[C@H]3[C@@H]1C[C@H](O)C2 [16β-estradiol] | will not interfere with the assay results |

These compounds were tested on ω-hydroxydecanoate dehydrogenase (assay: Isotopic exchange assay using ω-hydroxydecanoate dehydrogenase: specificity). Conditions: 10-hydroxydecanoate / 10-oxodecanoate assay.
Format: biochemical, rabbit
Text: The enzyme obtained will be contaminated to some degree with L-lactate dehydrogenase (I.U.B. 1.1.1.27).

| Compound | interference with assay results |
| --- | --- |
| CCO [ethanol] | will not interfere with assay results |
| NCCO [ethanolamine] | will not interfere with assay results |
| Cc1ncc(CO)c(CO)c1O [pyridoxine] | will not interfere with assay results |
| N[C@@H](CO)C(=O)O [serine] | will not interfere with assay results |
| C[C@@H](O)[C@H](N)C(=O)O [threonine] | will not interfere with assay results |

Same assay, conditions: value in brackets after the substrate

| Compound | relative rate of reaction |
| --- | --- |
| O=C(O)CCCCCCCCCO [10-hydroxycaproate] | 0.90 |
| O=C(O)CCCCCCCCCCO [11-hydroxy undecanoate] | 100 |

Each compound was assayed on 15-hydroxyprostaglandin dehydrogenase (assay: Isotopic exchange assay using 15-hydroxyprostaglandin dehydrogenase: specificity). Conditions: not given.
Format: biochemical, pig
Protocol: 11α,15-dihydroxy-9-oxoprost-13-enoate and 11α-hydroxy-9, 15-dioxoprost-13-enoate are determined using 15-hydroxyprostaglandin dehydrogenase from pig lung obtained by the procedure of Anggard, E.; Samuelsson, B. "Methods in Enzymology", vol. 14, page 215 (Academic Press, New York, 1969), pages 215-219 of which are incorporated herein by reference. The assay will detect most 15-hydroxy or 15-oxo-prostaglandins except those containing the dienone chromophore such as prostaglandin B compounds and their 19-hydroxylated derivatives.

| Compound | replacement of NAD as cofactor |
| --- | --- |
| nicotinamide adenine dinucleotide phosphate [NAD(P)] | will not replace NAD |

These compounds were tested on 21-hydroxysteroid dehydrogenase (assay: Isotopic exchange assay using 21-hydroxysteroid dehydrogenase: specificity). Conditions: not given.
Format: biochemical, sheep
Protocol: Cortisol and 21-dehydrocortisol are determined using AND dependent 21-hydroxysteroid dehydrogenase from sheep liver obtained by the procedure of Monder, C.; Furfine, C. S. "Methods in Enzymology", vol. […] 21-hydroxy-derivatives of cortisol, cortisone, corticosterone, 11-deoxycortisol, Δ^1 -cortisone, Δ^1 -cortisol, 11-deoxycorticosterone, and 9α-fluorocortisol will all be assayed using this enzyme.

| Compound | replacement of NAD as cofactor |
| --- | --- |
| nicotinamide adenine dinucleotide phosphate [NAD(P)] | will not replace NAD |
